Experimental data published in patent US8927500B2, “Peptidomimetic macrocycles” (Aileron Therapeutics, Inc., priority 2012, dated 2015).
Where a SMILES comes first, the peptide text is derived from it. Bridges are numbered along the chain shown (N, C = ends). [ ]: non-standard residue; d: D form. R8 = C=CCCCCCC[C@@](C)(N)C(=O)O; Chg = N[C@H](C(=O)O)C1CCCCC1; hLeu = CC(C)CC[C@H](N)C(=O)O; S5 = C=CCCC[C@](C)(N)C(=O)O; Nle = CCCC[C@H](N)C(=O)O

Tests used:
MDMX = target: T1, MDMX (Homo sapiens, UniProt O15151); assay: Competitive fluorescence polarization assay for MDMX; type: binding; details: competitive FP assay; for IC50: read-out: IC50 (MDMX); for Ki: read-out: Ki (MDMX)
T1 sequence (O15151 1-125): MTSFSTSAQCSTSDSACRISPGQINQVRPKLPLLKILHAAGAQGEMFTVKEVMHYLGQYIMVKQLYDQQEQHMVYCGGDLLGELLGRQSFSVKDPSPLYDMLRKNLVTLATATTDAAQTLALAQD

MDM2 = MDM2 (Homo sapiens, UniProt Q00987); assay: Competitive fluorescence polarization assay for MDM2; type: binding; details: competitive FP assay, MDM2; for IC50: read-out: IC50 (MDM2); for Ki: read-out: Ki (MDM2)
SJSA-1 cells = assay: Cell lysis by peptidomimetic macrocycles (LDH release); type: cell-based; details: 1 h at 37C

Sequence of MDM2 (Q00987 1-125): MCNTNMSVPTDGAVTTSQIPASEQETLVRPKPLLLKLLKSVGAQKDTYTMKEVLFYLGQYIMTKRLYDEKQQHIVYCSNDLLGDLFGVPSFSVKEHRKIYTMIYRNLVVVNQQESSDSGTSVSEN

CCCC[C@H](NC(=O)[C@H](C)NC(=O)[C@H](C)NC(=O)[C@]1(C)CCCC=CCCCCCC[C@@](C)(NC(=O)[C@H](Cc2ccccc2)NC(=O)[C@@H](NC(=O)[C@H](CC(C)C)NC(C)=O)[C@@H](C)O)C(=O)N[C@@H](C)C(=O)N[C@@H](Cc2ccc(O)cc2)C(=O)N[C@@H](Cc2c[nH]c3ccccc23)C(=O)N[C@@H](C)C(=O)N[C@@H](CCC(N)=O)C(=O)N[C@@H](CC(C)C)C(=O)N1)C(=O)N[C@H](C)C(N)=O (single isomer, unassigned) [compound 75]
IC50 (MDMX): 100 to 1000 nM
Ki (MDMX): 10 to 100 nM
IC50 (MDM2): 10 to 100 nM
Ki (MDM2): < 10 nM
6.25 uM % Lysed cells (1 h LDH) (SJSA-1 cells): −1%
25 uM % Lysed cells (1 h LDH) (SJSA-1 cells): 1%
50 uM % Lysed cells (1 h LDH) (SJSA-1 cells): 1%

CC(=O)N[C@@H](CC(C)C)C(=O)N[C@H](C(=O)N[C@@H](Cc1ccccc1)C(=O)N[C@]1(C)CCCCCCC=CCCC[C@@](C)(C(=O)N[C@@H](CO)C(=O)N[C@@H](C)C(=O)N[C@@H](C)C(N)=O)NC(=O)[C@H](C2CCCC2)NC(=O)[C@H](CCC(N)=O)NC(=O)[C@H](C)NC(=O)[C@H](Cc2c[nH]c3ccccc23)NC(=O)[C@H](Cc2ccc(O)cc2)NC(=O)[C@H](CCC(=O)O)NC1=O)[C@@H](C)O (single isomer, unassigned) [compound 150]
IC50 (MDMX): 100 to 1000 nM
Ki (MDMX): 10 to 100 nM
6.25 uM % Lysed cells (1 h LDH) (SJSA-1 cells): −1%
25 uM % Lysed cells (1 h LDH) (SJSA-1 cells): 0%
50 uM % Lysed cells (1 h LDH) (SJSA-1 cells): 2%

CC(=O)N[C@@H](CC(C)C)C(=O)N[C@H](C(=O)N[C@@H](Cc1ccccc1)C(=O)N[C@]1(C)CCCCCCC=CCCC[C@@](C)(C(=O)N[C@@H](CO)C(=O)N[C@@H](C)C(=O)N[C@@H](C)C(N)=O)NC(=O)[C@H](CC(C)C)NC(=O)[C@H](CCC(N)=O)NC(=O)[C@H](C)NC(=O)[C@H](Cc2c[nH]c3ccccc23)NC(=O)[C@H](Cc2ccc(C(=O)O)cc2)NC(=O)[C@H](C)NC1=O)[C@@H](C)O (single isomer, unassigned) [compound 169]
IC50 (MDMX): 10 to 100 nM
Ki (MDMX): 10 to 100 nM
IC50 (MDM2): < 10 nM
Ki (MDM2): < 10 nM
6.25 uM % Lysed cells (1 h LDH) (SJSA-1 cells): 2%
25 uM % Lysed cells (1 h LDH) (SJSA-1 cells): 3%
50 uM % Lysed cells (1 h LDH) (SJSA-1 cells): 7%

CC[C@H](C)[C@H](NC(=O)[C@H](C)NC(=O)[C@H](C)NC(=O)[C@]1(C)CCCC=CCCCCCC[C@@](C)(NC(=O)[C@H](Cc2ccccc2)NC(=O)[C@@H](NC(=O)[C@H](CC(C)C)NC(C)=O)[C@@H](C)O)C(=O)N[C@@H](C)C(=O)N[C@@H](Cc2ccc(C(=O)O)cc2)C(=O)N[C@@H](Cc2c[nH]c3ccccc23)C(=O)N[C@@H](C)C(=O)N[C@@H](CCC(N)=O)C(=O)N[C@@H](CC(C)C)C(=O)N1)C(=O)N[C@H](C)C(N)=O (single isomer, unassigned) [compound 182]
IC50 (MDMX): 100 to 1000 nM
Ki (MDMX): 10 to 100 nM
IC50 (MDM2): < 10 nM
Ki (MDM2): < 10 nM
6.25 uM % Lysed cells (1 h LDH) (SJSA-1 cells): 0%
25 uM % Lysed cells (1 h LDH) (SJSA-1 cells): 3%
50 uM % Lysed cells (1 h LDH) (SJSA-1 cells): 6%

CC[C@H](C)[C@H](NC(=O)[C@H](C)NC(=O)[C@H](C)NC(=O)[C@]1(C)CCCC=CCCCCCC[C@@](C)(NC(=O)[C@H](Cc2ccccc2)NC(=O)[C@@H](NC(=O)[C@H](CC(C)C)NC(C)=O)[C@@H](C)O)C(=O)N[C@@H](CCC(=O)O)C(=O)N[C@@H](Cc2ccc(O)cc2)C(=O)N[C@@H](Cc2c[nH]c3ccccc23)C(=O)N[C@@H](C)C(=O)N[C@@H](CCC(N)=O)C(=O)N[C@@H](CC(C)C)C(=O)N1)C(=O)N[C@H](C)C(N)=O (single isomer, unassigned) [compound 217]
IC50 (MDMX): 100 to 1000 nM
Ki (MDMX): 10 to 100 nM
IC50 (MDM2): < 10 nM
Ki (MDM2): < 10 nM
6.25 uM % Lysed cells (1 h LDH) (SJSA-1 cells): 2%
25 uM % Lysed cells (1 h LDH) (SJSA-1 cells): 1%
50 uM % Lysed cells (1 h LDH) (SJSA-1 cells): 2%

CC(=O)N[C@@H](CC(C)C)C(=O)N[C@H](C(=O)N[C@@H](Cc1ccccc1)C(=O)N[C@]1(C)CCCCCCC=CCCC[C@@](C)(C(=O)N[C@@H](C)C(=O)N[C@@H](C)C(=O)NC(C)(C)C(=O)N[C@@H](C)C(N)=O)NC(=O)[C@H](CC(C)C)NC(=O)[C@H](CCC(N)=O)NC(=O)[C@H](C)NC(=O)[C@H](Cc2c[nH]c3ccccc23)NC(=O)[C@H](Cc2ccc(O)cc2)NC(=O)[C@H](C)NC1=O)[C@@H](C)O (single isomer, unassigned) [compound 232]
IC50 (MDMX): 100 to 1000 nM
Ki (MDMX): 10 to 100 nM
IC50 (MDM2): < 10 nM
Ki (MDM2): < 10 nM
6.25 uM % Lysed cells (1 h LDH) (SJSA-1 cells): 6%
25 uM % Lysed cells (1 h LDH) (SJSA-1 cells): 5%
50 uM % Lysed cells (1 h LDH) (SJSA-1 cells): 5%

CC[C@H](C)[C@H](NC(=O)[C@H](C)NC(=O)[C@H](C)NC(=O)[C@]1(C)CCCC=CCCCCCC[C@@](C)(NC(=O)[C@H](Cc2ccccc2)NC(=O)[C@@H](NC(=O)[C@H](CC(C)C)NC(C)=O)[C@@H](C)O)C(=O)N[C@@H](CCC(=O)O)C(=O)N[C@@H](Cc2ccc(C(=O)O)cc2)C(=O)N[C@@H](Cc2c[nH]c3cc(Cl)ccc23)C(=O)N[C@@H](C)C(=O)N[C@@H](CCC(N)=O)C(=O)N[C@@H](CC2CCC2)C(=O)N1)C(=O)N[C@H](C)C(N)=O (single isomer, unassigned) [compound 336]
IC50 (MDMX): 10 to 100 nM
Ki (MDMX): < 10 nM
IC50 (MDM2): < 10 nM
Ki (MDM2): < 10 nM
6.25 uM % Lysed cells (1 h LDH) (SJSA-1 cells): 0%
25 uM % Lysed cells (1 h LDH) (SJSA-1 cells): 0%
50 uM % Lysed cells (1 h LDH) (SJSA-1 cells): 0%

CCCC[C@H](NC(=O)[C@H](C)NC(=O)[C@H](CO)NC(=O)[C@]1(C)CCCC=CCCCCCC[C@@](C)(NC(=O)[C@H](Cc2ccccc2)NC(=O)[C@@H](NC(=O)[C@H](CC(C)C)NC(C)=O)[C@@H](C)O)C(=O)N[C@@H](C)C(=O)N[C@@H](Cc2ccc(O)cc2)C(=O)N[C@@H](Cc2c[nH]c3ccccc23)C(=O)N[C@@H](C)C(=O)N[C@@H](CCC(N)=O)C(=O)N[C@@H](CC(C)C)C(=O)N1)C(N)=O [compound 3] (Ac-LTF[R8]AYWAQL[S5]SA[Nle]-NH2; staple 4-11)
IC50 (MDMX): 100 to 1000 nM
Ki (MDMX): 10 to 100 nM
IC50 (MDM2): 100 to 1000 nM
Ki (MDM2): 10 to 100 nM
6.25 uM % Lysed cells (1 h LDH) (SJSA-1 cells): 1%
25 uM % Lysed cells (1 h LDH) (SJSA-1 cells): 1%
50 uM % Lysed cells (1 h LDH) (SJSA-1 cells): 3%

CC(=O)N[C@@H](CC(C)C)C(=O)N[C@H](C(=O)N[C@@H](Cc1ccccc1)C(=O)N[C@]1(C)CCCCCCC=CCCC[C@@](C)(C(=O)N[C@@H](CO)C(=O)N[C@@H](C)C(=O)N[C@@H](CCC(C)C)C(N)=O)NC(=O)[C@H](CC(C)C)NC(=O)[C@H](CCC(N)=O)NC(=O)[C@H](C)NC(=O)[C@H](Cc2c[nH]c3ccccc23)NC(=O)[C@H](Cc2ccc(O)cc2)NC(=O)[C@H](C)NC1=O)[C@@H](C)O [compound 6] (Ac-LTF[R8]AYWAQL[S5]SA[hLeu]-NH2; staple 4-11)
IC50 (MDMX): 100 to 1000 nM
Ki (MDMX): 10 to 100 nM
IC50 (MDM2): 100 to 1000 nM
Ki (MDM2): 10 to 100 nM
6.25 uM % Lysed cells (1 h LDH) (SJSA-1 cells): 1%
25 uM % Lysed cells (1 h LDH) (SJSA-1 cells): 1%
50 uM % Lysed cells (1 h LDH) (SJSA-1 cells): 1%

CC(=O)N[C@@H](CC(C)C)C(=O)N[C@H](C(=O)N[C@@H](Cc1ccccc1)C(=O)N[C@]1(C)CCCCCCC=CCCC[C@@](C)(C(=O)N[C@@H](CO)C(=O)N[C@@H](C)C(=O)N[C@H](C(N)=O)C2CCCCC2)NC(=O)[C@H](CC(C)C)NC(=O)[C@H](CCC(N)=O)NC(=O)[C@H](C)NC(=O)[C@H](Cc2c[nH]c3ccccc23)NC(=O)[C@H](Cc2ccc(O)cc2)NC(=O)[C@H](C)NC1=O)[C@@H](C)O [compound 9] (Ac-LTF[R8]AYWAQL[S5]SA[Chg]-NH2; staple 4-11)
IC50 (MDMX): 100 to 1000 nM
Ki (MDMX): 10 to 100 nM
IC50 (MDM2): 100 to 1000 nM
Ki (MDM2): 10 to 100 nM
6.25 uM % Lysed cells (1 h LDH) (SJSA-1 cells): −3%
25 uM % Lysed cells (1 h LDH) (SJSA-1 cells): 0%
50 uM % Lysed cells (1 h LDH) (SJSA-1 cells): 2%

CC(C)CC[C@@H]1NC(=O)[C@H](CCC(N)=O)NC(=O)[C@H](C)NC(=O)[C@H](Cc2c[nH]c3ccccc23)NC(=O)[C@H](Cc2ccc(O)cc2)NC(=O)[C@H](CCC(=O)O)NC(=O)[C@](C)(NC(=O)[C@H](Cc2ccccc2)NC(=O)[C@@H](NC(=O)[C@H](CC(C)C)NC(=O)CN(C)C)[C@@H](C)O)CCCCCCC=CCCC[C@@](C)(C(=O)N[C@@H](CO)C(=O)N[C@@H](C)C(=O)N[C@@H](C)C(N)=O)NC1=O [compound 279]
IC50 (MDMX): 10 to 100 nM
Ki (MDMX): 10 to 100 nM
6.25 uM % Lysed cells (1 h LDH) (SJSA-1 cells): 6%
25 uM % Lysed cells (1 h LDH) (SJSA-1 cells): 5%
50 uM % Lysed cells (1 h LDH) (SJSA-1 cells): 6%

CCCCCC(=O)N[C@@H](CC(C)C)C(=O)N[C@H](C(=O)N[C@@H](Cc1ccccc1)C(=O)N[C@]1(C)CCCCCCC=CCCC[C@@](C)(C(=O)N[C@@H](CO)C(=O)N[C@@H](C)C(=O)N[C@@H](C)C(N)=O)NC(=O)[C@H](CCC(C)C)NC(=O)[C@H](CCC(N)=O)NC(=O)[C@H](C)NC(=O)[C@H](Cc2c[nH]c3ccccc23)NC(=O)[C@H](Cc2ccc(O)cc2)NC(=O)[C@H](CCC(=O)O)NC1=O)[C@@H](C)O [compound 280]
IC50 (MDMX): 100 to 1000 nM
Ki (MDMX): 10 to 100 nM
6.25 uM % Lysed cells (1 h LDH) (SJSA-1 cells): 5%
25 uM % Lysed cells (1 h LDH) (SJSA-1 cells): 6%
50 uM % Lysed cells (1 h LDH) (SJSA-1 cells): 18%

CC(C)CC[C@@H]1NC(=O)[C@H](CCC(N)=O)NC(=O)[C@H](C)NC(=O)[C@H](Cc2c[nH]c3ccccc23)NC(=O)[C@H](Cc2ccc(O)cc2)NC(=O)[C@H](CCC(=O)O)NC(=O)[C@](C)(NC(=O)[C@H](Cc2ccccc2)NC(=O)[C@@H](NC(=O)[C@H](CC(C)C)NC(=O)C(C)(C)C)[C@@H](C)O)CCCCCCC=CCCC[C@@](C)(C(=O)N[C@@H](CO)C(=O)N[C@@H](C)C(=O)N[C@@H](C)C(N)=O)NC1=O [compound 284]
IC50 (MDMX): 100 to 1000 nM
Ki (MDMX): 10 to 100 nM
6.25 uM % Lysed cells (1 h LDH) (SJSA-1 cells): 5%
25 uM % Lysed cells (1 h LDH) (SJSA-1 cells): 5%
50 uM % Lysed cells (1 h LDH) (SJSA-1 cells): 6%
